pKd: −log10 of the molar value. Like-named read-outs stand apart in the source and are kept apart here.
Key:
[1] = Calibration of [Ca2+] increases produced by UV photolysis of nitr-5 or nitr-7; settings: results not shown
Text: The most obvious difference between the present chelators and the previous tetracarboxylate Ca^2+ chelators is in their wavelengths of fluorescence excitation and emission. The new indicators' similarity to fluoresceins and rhodamines make them optically compatible with almost any fluorometer, fluorescence microscope, or flow cytometer already used for immunofluorescence detection. The fluorescein analogs fluo-1, -2, and -3 can be excited by incandescent illumination or the prominent 488 nm line of an […]. The rhodamine analogs rhod-1 rhod-2 are suited to incandescent illumination, the 531 nm line of a krypton-ion laser, or the 546 nm line of a mercury arc. By contrast, the earlier dyes quin-2 and fura-2 are best excited at 340-350 or 380-390 nm from a xenon lamp. Indo-1 does best with 350-360 nm from a xenon arc or the low-power UV lines of argon or krypton lasers. Optical elements for these UV wavelengths are preferably reflective or are made from quartz, glasses with enhanced UV transmission, or very thin ordinary glass. Plastics or thick (>1 mm) ordinary glass elements generally give too much absorbance or autofluorescence or both. By contrast, even these cheap optical materials are compatible with blue or green excitation.

[2] = room temperature, 0.1 M KCl, no added Mg^2+; read-out: Ca^2+ dissociation constant (Kd) used for FIG. 6; cited from earlier work
[3] = pH 7.03, 100 mM KCl, 20° C; read-out: Apparent dissociation constant for the Ca^2+ complex; cited from earlier work
[4] = pH 7.60, 0.12 M ionic strength, 20°; read-out: Apparent dissociation constant for the Mg^2+ complex (including monoprotonated form); cited from earlier work

Row | SMILES | Effect of excitation wavelengths on "caged" calcium [1] | pKd [2] | pKd [3] | pKd [4]
1 | Cc1ccc(N(CC(=O)O)CC(=O)O)c(OCCOc2cc3cc(-c4ncc(C(=O)O)o4)oc3cc2N(CC(=O)O)CC(=O)O)c1 [fura-2] | the excitation wavelengths began to photolyze the "caged" calcium | 6.87 | – | –
2 | O=C(O)CN(CCOCCOCCN(CC(=O)O)CC(=O)O)CC(=O)O [EGTA, ethylene glycol bis(-beta-aminoethyl ether)-N,N,N',N'-tetraacetic acid] | – | – | 6.49 | 2.22

Source: patent US5049673A, “Fluorescent indicator dyes for calcium working at long wavelengths” (The Regents of the University of California, priority 1987, dated 1991)
